According to patent US10604521B2, “Crystalline forms of PLX3397 hydrochloride, processes for preparation and use thereof” (Crystal Pharmaceutical (Suzhou) Co., Ltd., priority 2016, dated 2020):
Structures can show the parent of a compound that is named as a salt. Blank lines part the entries; values can stand above or below the compound they belong to.

Key:
[1] = stored at 80° C. for 7 days; cited from earlier work
[2] = Dynamic solubility (saturated solutions, HPLC); assay type: physicochemical; settings: monohydrochloride
Protocol: High Performance Liquid Chromatography (HPLC) data in the present disclosure are collected from Agilent 1100 with diode array detector (DAD). The HPLC method parameters for solubility test in the present disclosure are as follows:
4. Injection Volume: 4 μL
5. Detection wavelength: 230 nm
6. Column Temperature: 40° C.
7. Diluent: 50% Acetonitrile
Form CS2 of the present disclosure and Form C of WO2016179415 were suspended into SGF (Simulated gastric fluids) and water to get saturated solutions. After equilibrated for 1 h and 4 h, concentrations of the saturated solutions were measured by HPLC.

[3] = Mechanical stability: grinding in agate mortar, XRPD; assay type: physicochemical; settings: grinding for 5 minutes in agate mortar
Protocol: A certain amount of Form C of WO2016179415, Form CS2 and Form CS3 samples were placed in an agate mortar. After grinding for 5 minutes, the obtained solid was collected for XRPD characterization. The results of Form C of WO2016179415, Form CS2 and Form CS3 were substantially as depicted in FIG. 16, FIG. 17 and FIG. 18, respectively.

[4] = Particle size distribution (PSD), laser particle size analyzer, wet process; assay type: physicochemical; settings: volume distribution, dispersion medium Isopar G
Protocol: The particle size distribution test in the present disclosure is acquired by the S3500 laser particle size analyzer of Microtrac. Microtrac S3500 is equipped with the SDC (Sample Delivery Controller). The test is carried out by wet process, and the dispersion medium is Isopar G The parameters are as follow: [table] Mv: Average particle size calculated by volume. D10: particle size which accounts for 10% of the particle size distribution (volume distribution). D50: particle size which accounts for 50% of the particle size distribution (volume distribution), also known as the median particle size. D90: particle size which accounts for 90% of the particle size distribution (volume distribution). PSD was performed on Form CS3 of the present disclosure and Form C of WO2016179415.

[5] = Hygroscopicity test by dynamic vapor sorption (DVS), XRPD before and after; assay type: physicochemical; settings: 40%-95%-0-95% RH cycle at 25° C.
Protocol: Dynamic Vapor Sorption (DVS) is measured via a SMS (Surface Measurement Systems Ltd.) intrinsic DVS. Typical Parameters for DVS test are as follows: Temperature: 25° C. Gas and flow rate: N2, 200 mL/min dm/dt: 0.002%/min RH range: 0% RH to 95% RH 6.2 mg of monohydrochloride Form CS2 was placed into dynamic vapor sorption (DVS) instrument, and then went through a 40%-95%-0-95% RH cycle at 25° C. The DVS plot was substantially as depicted in FIG. 10. The XRPD patterns overlay of solids before and after DVS test was substantially as depicted in FIG. 11 (Top: XRPD pattern before DVS; Bottom: XRPD pattern after DVS). […] 7.9 mg of dihydrochloride Form CS3 was placed into dynamic vapor sorption (DVS) instrument, and then went through a 40%-95%-0-95% RH cycle at 25° C. The DVS plot was substantially as depicted in FIG. 12. The XRPD patterns overlay of solids before and after DVS test was substantially as depicted in FIG. 13 (Top: XRPD pattern before DVS; Bottom: XRPD pattern after DVS).

[6] = Stability assessment of Form CS2 stored at 5° C. (XRPD and HPLC); assay type: physicochemical; settings: for Purity: HPLC; for Solid Form: XRPD
Protocol: Form CS2 of the present disclosure was stored at 5° C. Samples were taken after 15 and 30 days to test XRPD and HPLC. The stability of From CS2 was mainly investigated. […] XRPD patterns overlay before and after storage for 30 days was substantially as depicted in FIG. 14.

[7] = Stability assessment of Form CS3 stored at 25° C./60% RH; assay type: physicochemical
Protocol: Form CS3 of the present disclosure was stored at 25° C./60% RH for 90 days. Samples were taken after 15, 30 and 90 days to investigate the stability of From CS3. […] XRPD patterns overlay before and after storage for 90 days was substantially as depicted in FIG. 15.

SMILES: FC(F)(F)c1ccc(CNc2ccc(Cc3c[nH]c4ncc(Cl)cc34)cn2)cn1 [Form A, PLX3397 monohydrochloride]
- Form change on storage [1]: converted to Form C

- Solubility ([2]; H2O, 1 h): 80 µg/mL
- Solubility ([2]; H2O, 4 h): 600 µg/mL
- Solubility ([2]; SGF, 1 h): 490 µg/mL
- Solubility ([2]; SGF, 4 h): 560 µg/mL
- Crystalline form after grinding ([3]; listed as Form C of WO2016179415, monohydrochloride): substantially changed to amorphous
- D(10) ([4]; monohydrochloride): 2.35 μm
- D(50) ([4]; monohydrochloride): 18.26 μm
- D(90) ([4]; monohydrochloride): 118.8 μm
SMILES: FC(F)(F)c1ccc(CNc2ccc(Cc3c[nH]c4ncc(Cl)cc34)cn2)cn1 [Form C, PLX3397 monohydrochloride, reference compound]

- Solubility ([2]; H2O, 1 h): 2170 µg/mL
- Solubility ([2]; H2O, 4 h): 1290 µg/mL
- Solubility ([2]; SGF, 1 h): 1130 µg/mL
- Solubility ([2]; SGF, 4 h): 1280 µg/mL
- Form change after DVS test [5]: No form change
- Purity ([6]; 15 days): 99.45%
- Solid Form ([6]; 15 days): No form change
- Purity ([6]; 30 days): 99.44%
- Solid Form ([6]; 30 days): No form change
- Purity ([6]; Initial): 99.53%
- Solid Form ([6]; Initial): No form change
SMILES: FC(F)(F)c1ccc(CNc2ccc(Cc3c[nH]c4ncc(Cl)cc34)cn2)cn1 [Form CS2, PLX3397 monohydrochloride]
- Crystalline form after grinding ([3]; monohydrochloride): crystallinity of Form CS2 and Form CS3 decreased but the crystalline forms remained unchanged

- Purity ([7]; 15 days): 99.60%
- Solid Form ([7]; 15 days): No form change
- Purity ([7]; 30 days): 99.64%
- Solid Form ([7]; 30 days): No form change
- Purity ([7]; 90 days): 99.50%
- Solid Form ([7]; 90 days): No form change
- Purity ([7]; Initial): 99.51%
- Solid Form ([7]; Initial): No form change
- Form change after DVS test [5]: No form change
- D(10) ([4]; dihydrochloride): 6.55 μm
- D(50) ([4]; dihydrochloride): 47.85 μm
- D(90) ([4]; dihydrochloride): 194.3 μm
SMILES: FC(F)(F)c1ccc(CNc2ccc(Cc3c[nH]c4ncc(Cl)cc34)cn2)cn1 [Form CS3, PLX3397 dihydrochloride]
- Crystalline form after grinding ([3]; dihydrochloride): crystallinity of Form CS2 and Form CS3 decreased but the crystalline forms remained unchanged
